Test results: US9102670B2, “Pyrido-, pyrazo- and pyrimido-pyrimidine derivatives as mTOR inhibitors” (KuDOS Pharmaceuticals Limited, priority 2006, dated 2015)
Where two headings read alike, the source gives them in different places.

Tested on: phosphorylation of Serine 473 in Akt
Test: In Vitro Phospho-Ser473 Akt Assay in MDA-MB-468 cells
Type: cell-based
Settings: Homo sapiens
[1] = MDA-MB-468, read-out: IC50 values against mTOR, phospho-Ser473 Akt assay, MDA-MB-468 cells
[2] = MDA-MB-468, read-out: IC50 values against mTOR, phospho-Ser473 Akt assay, MDA-MB-468 cells, upper bound

| Structure (SMILES) | IC50 [1] [nM] | also measured |
| --- | --- | --- |
| C[C@H]1COCCN1c1nc(N2CCOC[C@@H]2C)c2ccc(-c3ccc(N)nc3)nc2n1 [Example 1u] | < 100 | – |
| C[C@H]1COCCN1c1nc(N2CCOC[C@@H]2C)c2ccc(-c3cccc(Cl)n3)nc2n1 [Example 1v] | – | IC50 (phospho-Ser473 Akt assay, MDA-MB-468 cells, upper bound, read-out: IC50 values against mTOR): < 1000 nM |
| C[C@H]1COCCN1c1nc(N2CCCC(CO)C2)nc2nc(-c3cccc(C(N)=O)c3)ccc12 (stereo partly drawn) [Example 2d] | – | IC50 [2]: < 1000 nM |
| C[C@H]1COCCN1c1nc(N2CCC(c3ccncc3)CC2)nc2nc(-c3ccc(N)nc3)ccc12 [Example 2e] | – | IC50 [2]: < 1000 nM |
| C[C@H]1COCCN1c1nc(N2CCCCC2CO)nc2nc(-c3cccc(C(N)=O)c3)ccc12 (stereo partly drawn) [Example 2f] | < 300 | – |
| C[C@H]1COCCN1c1nc(N2CCCCC2CO)nc2nc(-c3ccc(N)nc3)ccc12 (stereo partly drawn) [Example 2g] | < 300 | – |
| C[C@H]1COCCN1c1nc(N2CCC(CO)CC2)nc2nc(-c3cccc(C(N)=O)c3)ccc12 [Example 2h] | – | IC50 [2]: < 1000 nM |
| C[C@H]1COCCN1c1nc(N2CCC(CCO)CC2)nc2nc(-c3ccc(N)nc3)ccc12 [Example 2j] | – | IC50 [2]: < 1000 nM |
| C[C@H]1COCCN1c1nc(N2CCOC[C@@H]2C)c2ccc(-c3cccc(C(=O)Nc4cc[nH]n4)c3)nc2n1 [Example 3a] | < 300 | – |
| CNC(=O)c1cc(-c2ccc3c(N4CCOC[C@@H]4C)nc(N4CCOC[C@@H]4C)nc3n2)ccc1OC [Example 3ad] | < 100 | – |
| C[C@H]1COCCN1c1nc(N2CCOC[C@@H]2C)c2ccc(-c3cccc(C(=O)NCCF)c3)nc2n1 [Example 3e] | < 300 | – |
| C[C@H]1COCCN1c1nc(N2CCOC[C@@H]2C)c2ccc(-c3cccc(C(=O)NCC(F)(F)F)c3)nc2n1 [Example 3f] | – | IC50 [2]: < 1000 nM |
| C[C@H]1COCCN1c1nc(N2CCOC[C@@H]2C)c2ccc(-c3cccc(C(=O)N4CC[C@@H](O)C4)c3)nc2n1 [Example 3g] | – | IC50 [2]: < 1000 nM |
| C[C@H]1COCCN1c1nc(N2CCOC[C@@H]2C)c2ccc(-c3cccc(C(=O)NC4CCOCC4)c3)nc2n1 [Example 3i] | < 100 | – |
| C[C@H]1COCCN1c1nc(N2CCOC[C@@H]2C)c2ccc(-c3cccc(C(=O)NCC(F)F)c3)nc2n1 [Example 3l] | < 100 | – |
| CCN(C)C(=O)c1cc(-c2ccc3c(N4CCOC[C@@H]4C)nc(N4CCOC[C@@H]4C)nc3n2)ccc1OC [Example 3u] | – | IC50 [2]: < 1000 nM |
| CON(C)C(=O)c1cc(-c2ccc3c(N4CCOC[C@@H]4C)nc(N4CCOC[C@@H]4C)nc3n2)ccc1F [Example 3y] | < 100 | – |
| CNCc1ccc(-c2ccc3c(N4CCOC[C@@H]4C)nc(N4CCOC[C@@H]4C)nc3n2)cc1 [Example 4a] | < 100 | – |
| COCCNCc1cc(-c2ccc3c(N4CCOC[C@@H]4C)nc(N4CCOC[C@@H]4C)nc3n2)ccc1F [Example 4aa] | < 300 | – |
| C[C@H]1COCCN1c1nc(N2CCOC[C@@H]2C)c2ccc(-c3ccc(F)c(CNCCF)c3)nc2n1 [Example 4ab] | – | IC50 [2]: < 1000 nM |
| C[C@H]1COCCN1c1nc(N2CCOC[C@@H]2C)c2ccc(-c3ccc(F)c(CNCCO)c3)nc2n1 [Example 4ac] | < 100 | – |
| C[C@H]1COCCN1c1nc(N2CCOC[C@@H]2C)c2ccc(-c3ccc(F)c(CN4CC[C@@H](O)C4)c3)nc2n1 [Example 4ad] | < 300 | – |
| C[C@H]1COCCN1c1nc(N2CCOC[C@@H]2C)c2ccc(-c3ccc(F)c(CN(C)C)c3)nc2n1 [Example 4af] | < 100 | – |

| Structure (SMILES) | IC50 [1] [nM] | also measured |
| --- | --- | --- |
| C[C@H]1COCCN1c1nc(N2CCOC[C@@H]2C)c2ccc(-c3ccc(F)c(CN4CCC[C@@H](O)C4)c3)nc2n1 [Example 4ah] | < 300 | – |
| CC(C)N(C)Cc1cc(-c2ccc3c(N4CCOC[C@@H]4C)nc(N4CCOC[C@@H]4C)nc3n2)ccc1F [Example 4ai] | < 100 | – |
| COCCN(C)Cc1cc(-c2ccc3c(N4CCOC[C@@H]4C)nc(N4CCOC[C@@H]4C)nc3n2)ccc1F [Example 4aj] | – | IC50 [2]: < 1000 nM |
| C[C@H]1COCCN1c1nc(N2CCOC[C@@H]2C)c2ccc(-c3ccc(F)c(CN4CC[C@H](O)C4)c3)nc2n1 [Example 4ak] | < 100 | – |
| COc1ccc(-c2ccc3c(N4CCOC[C@@H]4C)nc(N4CCOC[C@@H]4C)nc3n2)cc1CNC(C)C [Example 4am] | < 100 | – |
| COc1ccc(-c2ccc3c(N4CCOC[C@@H]4C)nc(N4CCOC[C@@H]4C)nc3n2)cc1CNC1CCCC1 [Example 4an] | < 300 | – |
| COc1ccc(-c2ccc3c(N4CCOC[C@@H]4C)nc(N4CCOC[C@@H]4C)nc3n2)cc1CNC1CCCCC1 [Example 4ao] | < 100 | – |
| COc1ccc(-c2ccc3c(N4CCOC[C@@H]4C)nc(N4CCOC[C@@H]4C)nc3n2)cc1CNCc1cccs1 [Example 4ap] | < 300 | – |
| COc1ccc(-c2ccc3c(N4CCOC[C@@H]4C)nc(N4CCOC[C@@H]4C)nc3n2)cc1CNC1CCOCC1 [Example 4aq] | < 100 | – |
| COc1ccc(-c2ccc3c(N4CCOC[C@@H]4C)nc(N4CCOC[C@@H]4C)nc3n2)cc1CNCCC(C)(C)C [Example 4as] | < 100 | – |
| COc1ccc(-c2ccc3c(N4CCOC[C@@H]4C)nc(N4CCOC[C@@H]4C)nc3n2)cc1CNCCC(C)C [Example 4at] | < 100 | – |
| COc1ccc(-c2ccc3c(N4CCOC[C@@H]4C)nc(N4CCOC[C@@H]4C)nc3n2)cc1CNC(C)CC(C)C (stereo partly drawn) [Example 4au] | < 100 | – |
| CCN(CC)CCCNCc1cc(-c2ccc3c(N4CCOC[C@@H]4C)nc(N4CCOC[C@@H]4C)nc3n2)ccc1OC [Example 4av] | < 300 | – |
| COc1ccc(-c2ccc3c(N4CCOC[C@@H]4C)nc(N4CCOC[C@@H]4C)nc3n2)cc1CNC1CCCCC1C (stereo partly drawn) [Example 4aw] | < 100 | – |
| COc1ccc(-c2ccc3c(N4CCOC[C@@H]4C)nc(N4CCOC[C@@H]4C)nc3n2)cc1CNCC1CC1 [Example 4ax] | < 100 | – |
| CCCCNCc1cc(-c2ccc3c(N4CCOC[C@@H]4C)nc(N4CCOC[C@@H]4C)nc3n2)ccc1OC [Example 4ay] | < 100 | – |
| COc1ccc(-c2ccc3c(N4CCOC[C@@H]4C)nc(N4CCOC[C@@H]4C)nc3n2)cc1CNCC(C)C [Example 4az] | < 100 | – |
| C[C@H]1COCCN1c1nc(N2CCOC[C@@H]2C)c2ccc(-c3ccc(CN)cc3)nc2n1 [Example 4b] | < 100 | – |
| COc1ccc(-c2ccc3c(N4CCOC[C@@H]4C)nc(N4CCOC[C@@H]4C)nc3n2)cc1CNCCO [Example 4ba] | < 100 | – |
| COCCNCc1cc(-c2ccc3c(N4CCOC[C@@H]4C)nc(N4CCOC[C@@H]4C)nc3n2)ccc1OC [Example 4bb] | < 100 | – |
| COc1ccc(-c2ccc3c(N4CCOC[C@@H]4C)nc(N4CCOC[C@@H]4C)nc3n2)cc1CNC1CCC(C)CC1 (stereo partly drawn) [Example 4bc] | < 100 | – |
| COc1ccc(CCNCc2cc(-c3ccc4c(N5CCOC[C@@H]5C)nc(N5CCOC[C@@H]5C)nc4n3)ccc2OC)cc1 [Example 4bd] | < 100 | – |
| COc1ccc(-c2ccc3c(N4CCOC[C@@H]4C)nc(N4CCOC[C@@H]4C)nc3n2)cc1CNCCc1cnc[nH]1 [Example 4be] | < 100 | – |

| Structure (SMILES) | IC50 [1] [nM] | also measured |
| --- | --- | --- |
| COc1ccc(-c2ccc3c(N4CCOC[C@@H]4C)nc(N4CCOC[C@@H]4C)nc3n2)cc1CNC1CCCCCCC1 [Example 4bf] | < 100 | – |
| C[C@H]1COCCN1c1nc(N2CCOC[C@@H]2C)c2ccc(-c3ccc(CN4CC[C@@H](O)C4)cc3)nc2n1 [Example 4c] | < 100 | – |
| C[C@H]1COCCN1c1nc(N2CCOC[C@@H]2C)c2ccc(-c3ccc(CN4CC[C@H](O)C4)cc3)nc2n1 [Example 4d] | < 100 | – |
| C[C@H]1COCCN1c1nc(N2CCOC[C@@H]2C)c2ccc(-c3ccc(CNC4CCOCC4)cc3)nc2n1 [Example 4e] | < 100 | – |
| CCOCc1cccc(-c2ccc3c(N4CCOC[C@@H]4C)nc(N4CCOC[C@@H]4C)nc3n2)c1 [Example 4g] | < 300 | – |
| C[C@H]1COCCN1c1nc(N2CCOC[C@@H]2C)c2ccc(-c3cccc(CNCCO)c3)nc2n1 [Example 4h] | < 100 | – |
| C[C@H]1COCCN1c1nc(N2CCOC[C@@H]2C)c2ccc(-c3cccc(CN)c3)nc2n1 [Example 4i] | < 100 | – |
| C[C@H]1COCCN1c1nc(N2CCOC[C@@H]2C)c2ccc(-c3cccc(CNC4CC4)c3)nc2n1 [Example 4j] | < 100 | – |
| CC(C)NCc1cccc(-c2ccc3c(N4CCOC[C@@H]4C)nc(N4CCOC[C@@H]4C)nc3n2)c1 [Example 4k] | < 100 | – |
| CNCc1cccc(-c2ccc3c(N4CCOC[C@@H]4C)nc(N4CCOC[C@@H]4C)nc3n2)c1 [Example 4l] | < 100 | – |
| C[C@H]1COCCN1c1nc(N2CCOC[C@@H]2C)c2ccc(-c3cccc(CNC4CCOCC4)c3)nc2n1 [Example 4m] | < 100 | – |
| C[C@H]1COCCN1c1nc(N2CCOC[C@@H]2C)c2ccc(-c3cccc(CNCC4CC4)c3)nc2n1 [Example 4n] | < 100 | – |
| COCCNCc1cccc(-c2ccc3c(N4CCOC[C@@H]4C)nc(N4CCOC[C@@H]4C)nc3n2)c1 [Example 4o] | < 100 | – |
| C[C@H]1COCCN1c1nc(N2CCOC[C@@H]2C)c2ccc(-c3cccc(CNc4cc[nH]n4)c3)nc2n1 [Example 4p] | < 300 | – |
| C[C@H]1COCCN1c1nc(N2CCOC[C@@H]2C)c2ccc(-c3cccc(Cn4ccnc4)c3)nc2n1 [Example 4q] | < 300 | – |
| C[C@H]1COCCN1c1nc(N2CCOC[C@@H]2C)c2ccc(-c3cccc(CN4CC[C@@H](O)C4)c3)nc2n1 [Example 4r] | < 100 | – |
| C[C@H]1COCCN1c1nc(N2CCOC[C@@H]2C)c2ccc(-c3cccc(CN4CC[C@H](O)C4)c3)nc2n1 [Example 4s] | < 100 | – |
| C[C@H]1COCCN1c1nc(N2CCOC[C@@H]2C)c2ccc(-c3cccc(CS(C)(=O)=O)c3)nc2n1 [Example 4t] | – | IC50 [2]: < 1000 nM |
| C[C@H]1COCCN1c1nc(N2CCOC[C@@H]2C)c2ccc(-c3ccc(F)c(CN)c3)nc2n1 [Example 4u] | < 100 | – |
| C[C@H]1COCCN1c1nc(N2CCOC[C@@H]2C)c2ccc(-c3ccc(F)c(CNC4CC4)c3)nc2n1 [Example 4v] | – | IC50 [2]: < 1000 nM |
| CC(C)NCc1cc(-c2ccc3c(N4CCOC[C@@H]4C)nc(N4CCOC[C@@H]4C)nc3n2)ccc1F [Example 4w] | < 100 | – |
| CNCc1cc(-c2ccc3c(N4CCOC[C@@H]4C)nc(N4CCOC[C@@H]4C)nc3n2)ccc1F [Example 4x] | < 100 | – |
| C[C@H]1COCCN1c1nc(N2CCOC[C@@H]2C)c2ccc(-c3ccc(F)c(CNC4CCOCC4)c3)nc2n1 [Example 4y] | < 100 | – |
